{
  "source": "patent US4678810A",
  "about": "“Medical uses of halogenobenzohenone-oxime derivatives” (Institut de Recherches Chimiques et Biologiques of Appliques, priority 1983, dated 1987)",
  "key": {"[1]": {"test": "Acute oral toxicity (DL-50), 14-day observation", "conditions": "mouse, in vivo, mice, per os, 14 days observation", "description": "(§1) Assays were performed on batches of mice (males and females) weighing each from 18 to 20 g and receiving the compounds to be tested at the doses of 0.5 g/kg, 0.8 g/kg, 1 g/kg, 2 g/kg, 3 g/kg and 4 g/kg per os in an aqueous medium containing 20 g/l of carboxymethylcellulose, the animals being observed during the 14 days following administration."}, "[2]": {"test": "Tolerance: diarrhoea after oral administration", "type": "in vivo", "conditions": "mice, per os", "description": "as §1"}, "[3]": {"test": "Tolerance: rectal temperature after oral administration", "type": "in vivo", "conditions": "mice, per os, from the dose of 2 g/kg", "description": "as §1"}, "[4]": {"test": "Tolerance: weight / liver hypertrophy after oral administration", "type": "in vivo", "conditions": "mice, per os, from the dose of 0.8 g/kg", "description": "as §1"}, "[5]": {"test_system": "Bacillus subtilis ATCC 6633", "test": "Antibacterial activity in vitro (MIC), dilution technique", "type": "cell-based", "conditions": "ATCC6633", "source_text": "(§2) The antibacterial activity was studied in vitro according to the usual classical dilution techinque with respect to several strains, in order to determine the minimal inhibiting concentration (M.I.C.) i.e. the minimal bacteriostatic concentration.\n(§3) The results thus obtained are tabulated in table II hereinafter, the strains used being those of the catalogues of the \"Institut Pasteur\" of Paris, France (abbreviation: CIP), the \"Centre International de Distribution de Souches et d'Information sur les Types Microbiens de Lausanne\" (abbreviation: La) and the \"American Type Culture Collection\" (abbreviation: ATCC)."}, "[6]": {"test_system": "Diplococcus pneumoniae La 209", "test": "Antibacterial activity in vitro (MIC), dilution technique", "type": "cell-based", "conditions": "Streptococcus pneumoniae, LA209", "source_text": "as §2, §3"}, "[7]": {"test_system": "Diplococcus pneumoniae La 210", "test": "Antibacterial activity in vitro (MIC), dilution technique", "type": "cell-based", "conditions": "Streptococcus pneumoniae, LA210", "source_text": "as §2, §3"}, "[8]": {"test_system": "Staphylococcus aureus ATCC 6538 P", "test": "Antibacterial activity in vitro (MIC), dilution technique", "type": "cell-based", "conditions": "ATCC6538", "source_text": "as §2, §3"}, "[9]": {"test_system": "Staphylococcus aureus La 634", "test": "Antibacterial activity in vitro (MIC), dilution technique", "type": "cell-based", "conditions": "LA634", "source_text": "as §2, §3"}, "[10]": {"test_system": "Staphylococcus aureus La 636", "test": "Antibacterial activity in vitro (MIC), dilution technique", "type": "cell-based", "conditions": "LA636", "source_text": "as §2, §3"}, "[11]": {"test_system": "Staphylococcus aureus La 659", "test": "Antibacterial activity in vitro (MIC), dilution technique", "type": "cell-based", "conditions": "LA659", "source_text": "as §2, §3"}, "[12]": {"test_system": "Staphylococcus aureus London CIP A.238", "test": "Antibacterial activity in vitro (MIC), dilution technique", "type": "cell-based", "source_text": "as §2, §3"}, "Streptococcus La 147": {"test_system": "Streptococcus La 147", "test": "Antibacterial activity in vitro (MIC), dilution technique", "type": "cell-based", "conditions": "LA147", "source_text": "as §2, §3"}, "[13]": {"test_system": "Streptococcus faecalis CIP 53.152", "test": "Antibacterial activity in vitro (MIC), dilution technique", "type": "cell-based", "conditions": "Enterococcus faecalis, CIP53", "source_text": "as §2, §3"}, "[14]": {"test_system": "Streptococcus faecalis CIP 55.142", "test": "Antibacterial activity in vitro (MIC), dilution technique", "type": "cell-based", "conditions": "Enterococcus faecalis, CIP55", "source_text": "as §2, §3"}, "[15]": {"test_system": "Streptococcus pyogenes CIP. 56.1", "test": "Antibacterial activity in vitro (MIC), dilution technique", "type": "cell-based", "source_text": "as §2, §3"}, "[16]": {"test_system": "Streptococcus pyogenes CIP. 56.41", "test": "Antibacterial activity in vitro (MIC), dilution technique", "type": "cell-based", "source_text": "as §2, §3"}, "[17]": {"test_system": "Streptococcus pyogenes CIP. 56.43", "test": "Antibacterial activity in vitro (MIC), dilution technique", "type": "cell-based", "source_text": "as §2, §3"}, "[18]": {"test_system": "Streptococcus pyogenes CIP. 56.45", "test": "Antibacterial activity in vitro (MIC), dilution technique", "type": "cell-based", "source_text": "as §2, §3"}, "[19]": {"test_system": "Streptococcus pyogenes CIP. A 241", "test": "Antibacterial activity in vitro (MIC), dilution technique", "type": "cell-based", "conditions": "CIP.A241", "source_text": "as §2, §3"}, "[20]": {"conditions": "cited from earlier work"}, "Gram+ bacteriae": {"test_system": "Gram+ bacteriae", "conditions": "commercialized drug; cited from earlier work"}, "Gram+ strains": {"test_system": "Gram+ strains", "test": "Antibacterial activity in vitro, summary for Gram+ strains", "type": "cell-based, Gram+ bacteriae", "conditions": "compared with B.11", "source_text": "as §2, §3"}, "[21]": {"test_system": "Gram- strains such as Neisseria", "test": "Antibacterial activity in vitro, summary for some Gram- strains", "type": "cell-based", "source_text": "as §2, §3"}, "[22]": {"test_system": "acute infections of the otorhinolaryngological system and bronchopathies", "test": "Clinical assays in acute infections of the otorhinolaryngological system and bronchopathies", "type": "in vivo, human", "conditions": "humans, acute ENT infections and bronchopathies", "description": "Clinical assays carried out on human beings suffering from infectious disease caused by Gram+ bacteriae and Neisseria Gram- bacteria gave fair and good results, especially when the pharmaceutical composition according to the invention which was administered suitably contained from 0.1 to 95% by weight of at least one compound of the formula I.\nFor oral administration, the composition is preferably formulated as tablets or gelatine-coated capsules, each tablet or capsule containing from 10 to 200 mg of the active ingredient. For the treatment of infections due to Gram+ bacteriae and Neisseria, such tablets or capsules are suitably administered to human patients at the rate of 2 to 8 tablets or capsules per day, for at least 4 days and preferably from 4 to 7 days, in particular for compound B.602."}, "[23]": {"set-up": "species or system mice", "conditions": "mouse, in vivo", "description": "as §1"}},
  "data": [
    {"compound": "CC(C)(C)CC(C)(C)c1ccc(O)c(Cc2ccc(Cl)cc2Cl)c1", "note": "[Clofoctol, 2-(2,4-dicholrobenzyl)-4-(1,1,3,3-tetramethylbutyl)-phenol]", "values": [
      {"measurement": "LD50 at 336 h", "setting": "[1]", "value": 2000, "unit": "mg/kg"},
      {"measurement": "dose at which it begins to induce diarrhoea", "setting": "[2]", "value": 800, "unit": "mg/kg"},
      {"measurement": "reduction of rectal temperature", "setting": "[3]", "value": "reduces the rectal temperature for 48 hours"},
      {"measurement": "liver hypertrophy", "setting": "[4]", "value": "induces a slight liver hypertrophy"},
      {"measurement": "MIC", "setting": "[5]", "value": 4, "unit": "µg/mL"},
      {"measurement": "MIC", "setting": "[6]", "value": 4, "unit": "µg/mL"},
      {"measurement": "MIC", "setting": "[7]", "value": 5, "unit": "µg/mL"},
      {"measurement": "MIC", "setting": "[8]", "value": 8, "unit": "µg/mL"},
      {"measurement": "MIC", "setting": "[9]", "value": 6, "unit": "µg/mL"},
      {"measurement": "MIC", "setting": "[10]", "value": 5, "unit": "µg/mL"},
      {"measurement": "MIC", "setting": "[11]", "value": 6, "unit": "µg/mL"},
      {"measurement": "MIC", "setting": "[12]", "value": 3, "unit": "µg/mL"},
      {"measurement": "MIC", "setting": "Streptococcus La 147", "value": 7, "unit": "µg/mL"},
      {"measurement": "MIC", "setting": "[13]", "value": 6, "unit": "µg/mL"},
      {"measurement": "MIC", "setting": "[14]", "value": 5, "unit": "µg/mL"},
      {"measurement": "MIC", "setting": "[15]", "value": 3, "unit": "µg/mL"},
      {"measurement": "MIC", "setting": "[16]", "value": 4, "unit": "µg/mL"},
      {"measurement": "MIC", "setting": "[17]", "value": 2, "unit": "µg/mL"},
      {"measurement": "MIC", "setting": "[18]", "value": 2, "unit": "µg/mL"},
      {"measurement": "MIC", "setting": "[19]", "value": 4, "unit": "µg/mL"},
      {"measurement": "hydrosolubility / hydrodispersibility", "setting": "[20]", "value": "not naturally hydrosoluble nor hydrodispersible"},
      {"measurement": "effectiveness in infectious diseases caused by Gram+ bacteriae", "setting": "Gram+ bacteriae", "value": "particularly effective"}
    ]},
    {"compound": "CC(C)(C)CC(C)(C)c1ccc(O)c(C(=NO)c2ccc(Cl)cc2Cl)c1", "note": "[Example 1, 2',4'-dichloro-2-hydroxy-5-(1,1,3,3-tetramethylbutyl)-benzophenone-oxime]", "values": [
      {"measurement": "LD50 at 336 h", "setting": "[1]", "value": "> 4000", "unit": "mg/kg"},
      {"measurement": "MIC", "setting": "[5]", "value": 1, "unit": "µg/mL"},
      {"measurement": "MIC", "setting": "[6]", "value": 4, "unit": "µg/mL"},
      {"measurement": "MIC", "setting": "[7]", "value": 3, "unit": "µg/mL"},
      {"measurement": "MIC", "setting": "[8]", "value": 4, "unit": "µg/mL"},
      {"measurement": "MIC", "setting": "[9]", "value": 3, "unit": "µg/mL"},
      {"measurement": "MIC", "setting": "[10]", "value": 4, "unit": "µg/mL"},
      {"measurement": "MIC", "setting": "[11]", "value": 5, "unit": "µg/mL"},
      {"measurement": "MIC", "setting": "[12]", "value": 1, "unit": "µg/mL"},
      {"measurement": "MIC", "setting": "Streptococcus La 147", "value": 2, "unit": "µg/mL"},
      {"measurement": "MIC", "setting": "[13]", "value": 3, "unit": "µg/mL"},
      {"measurement": "MIC", "setting": "[14]", "value": 2, "unit": "µg/mL"},
      {"measurement": "MIC", "setting": "[15]", "value": 2, "unit": "µg/mL"},
      {"measurement": "MIC", "setting": "[16]", "value": 3, "unit": "µg/mL"},
      {"measurement": "MIC", "setting": "[17]", "value": 1, "unit": "µg/mL"},
      {"measurement": "MIC", "setting": "[18]", "value": 1, "unit": "µg/mL"},
      {"measurement": "MIC", "setting": "[19]", "value": 2, "unit": "µg/mL"},
      {"measurement": "activity against Gram+ strains", "setting": "Gram+ strains", "value": "more active than B.11"},
      {"measurement": "activity against some Gram- strains", "setting": "[21]", "value": "active against some Gram- strains such as Neisseria"},
      {"measurement": "clinical result as a bactericidal agent", "setting": "[22]", "value": "very interesting as a bactericidal agent"},
      {"measurement": "tolerance compared with B.11", "setting": "[23]", "value": "better tolerated than B.11"}
    ]}
  ]
}
